Test results as given in PubChem BioAssay (NCI).
Several values for one entry are separate records, joined by “and”; a condition that tells them apart may be missing. Equal entries are not always repeated.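 Exposure lasted 48 hours, with cells grown in 96-well plates and compounds tested at five concentrations. Here, GI50 denotes the concentration required for 50% inhibition of growth. TGI denotes the concentration required for complete inhibition of growth.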

Legend:
Assay in all cases: growth of human tumour cells (NCI), 48 h
ACHN renal = tested on: ACHN renal
HCT-15 colon = tested on: HCT-15 colon
NCI-H460 lung = tested on: NCI-H460 lung
NCI-H522 lung = tested on: NCI-H522 lung
OVCAR-3 ovarian = tested on: OVCAR-3 ovarian
SNB-19 CNS = tested on: SNB-19 CNS
SR leukemia = tested on: SR leukemia
TK-10 renal = tested on: TK-10 renal
U251 CNS = tested on: U251 CNS
IGROV1 ovarian = tested on: IGROV1 ovarian

Structure (SMILES)	GI50 (ACHN renal) [µM]	TGI (ACHN renal) [µM]	GI50 (HCT-15 colon) [µM]	TGI (HCT-15 colon)	GI50 (NCI-H460 lung) [µM]	TGI (NCI-H460 lung)	GI50 (NCI-H522 lung) [µM]	TGI (NCI-H522 lung)	GI50 (OVCAR-3 ovarian) [µM]	TGI (OVCAR-3 ovarian) [µM]	GI50 (SNB-19 CNS) [µM]	TGI (SNB-19 CNS)	GI50 (SR leukemia)	TGI (SR leukemia)	GI50 (TK-10 renal) [µM]	TGI (TK-10 renal) [µM]	GI50 (U251 CNS) [µM]	TGI (U251 CNS)	GI50 (IGROV1 ovarian) [µM]	TGI (IGROV1 ovarian) [µM]
CC(C)(C)OC(=O)NCCCCCCCCCCCCn1c2c(c3ccccc3c1=O)C(=O)c1ccccc1-2	21.1	54.7	> 100	> 100 µM	> 100	> 100 µM	45	> 100 µM	> 100	> 100	32	83.5 µM	35 µM	> 100 µM	19.1	45.5	36	> 100 µM	–	–
COc1ccc(-c2cn3ccnc3c(-c3ccc(Cl)cc3)n2)cc1	10.5	47	3.16	> 100 µM	10.8	> 100 µM	> 100	> 100 µM	3.19	71.8	14.4	> 100 µM	1.71 µM	> 100 µM	–	–	–	–	7.46	> 100
CNC(=O)NCCCCC(NC(C)=O)C(=O)NCc1ccccc1 (stereo unspecified)	–	> 100	–	> 100 µM	–	> 100 µM	–	> 100 µM	–	> 100	–	> 100 µM	–	–	–	> 100	–	> 100 µM	–	> 100
COc1ccc(C2=NNC(c3sc(Cl)nc3Cl)C2)cc1 (stereo unspecified)	4.58	20.6	3.78	19.3 µM	24.3	75.1 µM	2.23	7.69 µM	3.26	8.79	20.8	68.6 µM	2.54 µM	19.7 µM	–	–	9.08	22.1 µM	5.21	22.2
Nc1ccccc1SC(/C=C/NNC1=NC(c2ccccc2)C(c2ccccc2)=NN1)c1ccccc1 (stereo unspecified)	–	28.6	–	32 µM	–	51.9 µM	–	14.5 µM	–	26.1	–	43.8 µM	–	–	–	33.3	–	28.9 µM	–	32.5
Cc1cc(C)c(-c2c(O)c(Br)c(-c3c(C)cc(C)c(Br)c3C)c(O)c2Br)c(C)c1Br	3.14	13	2.51	10.8 µM	2.16	6.5 µM	1.67	3.6 µM	2.33	10.8	–	–	2.32 µM	8.29 µM	3.37	13.4	2.28	8.54 µM	3.59	13.9
OC(Cc1cccc2ccccc12)CN1CCC(c2ccccc2)CC1 (stereo unspecified)	–	31.7	–	30.4 µM	–	28.4 µM	–	21.9 µM	–	30.5	–	26.3 µM	–	27.4 µM	–	28.1	–	26.2 µM	–	–
CSCc1ncc(-c2ccc(C(F)(F)F)cc2)c(NC2CCCCCC2)n1	> 10	> 10	> 10	> 10 µM	> 10	> 10 µM	–	–	> 10	> 10	> 10	> 10 µM	> 10 µM	> 10 µM	> 10	> 10	> 10	> 10 µM	> 10	> 10
CN1C2C=CC(=O)C1C(C#N)C2 (stereo unspecified)	–	> 100	–	73.5 µM and > 100 µM	–	> 100 µM	–	–	–	> 100	–	> 100 µM	22.7 µM and 61.6 µM	81 µM and > 100 µM	–	> 100	23.6	> 100 µM	–	> 100
CSC(=S)NCc1cn(C)c2ccccc12	21.9	> 100	26.8	> 100 µM	29.4	> 100 µM	21.5	86.1 µM	23.4	80.4	40.3	> 100 µM	–	–	28.7	> 100	28.6	> 100 µM	26.1	> 100
OC[C@H]1N[C@H](CO)[C@@H](O)[C@H]1O	–	> 100	–	> 100 µM	–	–	–	> 100 µM	–	–	–	> 100 µM	–	> 100 µM	–	> 100	–	> 100 µM	–	> 100
COc1c2c(c(O)c3c4c(c(C)cc13)C1OC3(C(OC)OC5CC(C)(O)C(OC6CC(C)(O)C(O)C(C)O6)C(C)O5)OC1C(OC)(O4)C31CO1)C(=O)C(O)CC2OC1CC(C)(O)C(OC(C)=O)C(C)O1 (stereo unspecified)	–	0.0924	–	1.58 µM	–	0.15 µM	–	< 0.01 µM	–	< 0.01	–	0.739 µM	–	–	–	18.6	–	< 0.0108 µM	–	0.957
NCCOCCOCC(=O)O	–	> 100	–	> 100 µM	–	–	–	> 100 µM	–	> 100	–	> 100 µM	–	> 100 µM	–	> 100	–	> 100 µM	–	> 100
C=C1C(=O)O[C@@H]2C[C@@H](C)[C@@H]3C=CC(=O)[C@@]3(C)[C@@H](OC(=O)CCCC(=O)O[C@H]3[C@@H]4C(=C)C(=O)O[C@@H]4C[C@@H](C)[C@@H]4C=CC(=O)[C@]43C)[C@H]12	–	0.11	–	0.112 µM	–	0.955 µM	–	0.0253 µM	–	0.275	–	2.56 µM	–	–	–	0.296	–	0.377 µM	–	0.313
CCCC(=O)Nc1cc(/C=C/C(=O)N2C[C@@H]3C[C@]34C2=CC(=O)c2[nH]cc(C)c24)n(C)c1	–	0.796	–	9.89 µM	0.053	2.51 µM and 0.394 µM	0.0287	0.219 µM and 0.141 µM	–	1.2	0.18	25 µM and 11.3 µM	–	0.0709 µM	–	–	0.0359	3.72 µM and 13.8 µM	–	25
COc1cc(C=NCC(=O)CSC(c2ccccc2)c2ccccc2)ccc1O	12.5	31.8	13.8	30.8 µM	20.1	56.2 µM	–	–	11.3	24.9	14.5	28.7 µM	8.27 µM	25.3 µM	14.7	53.7	14	26.9 µM	–	–
O=C(NCCCN1CCN(CCCNC(=O)Nc2cc(Cl)ccc2Cl)CC1)Nc1cc(Cl)ccc1Cl	–	> 100	–	> 100 µM	–	> 100 µM	–	> 100 µM	–	> 100	–	> 100 µM	–	–	–	> 100	–	> 100 µM	–	> 100
O=C1C(=O)N(c2cc(Cl)ccc2Cl)C(=O)C(=O)C1c1nc2ccccc2s1	–	> 100	–	> 100 µM	–	> 100 µM	–	> 100 µM	–	> 100	–	> 100 µM	–	–	–	> 100	–	> 100 µM	–	> 100
